Results reported in ChEMBL document CHEMBL3352235, “Design, synthesis and biological evaluation of 17-arylmethylamine-17-demethoxygeldanamycin derivatives as potent Hsp90 inhibitors” (Eur J Med Chem, 2014).

Columns and labels:
LNCaP = experiment: cells; conditions: Homo sapiens, 72 h
Description: Cytotoxicity against human LNCAP cells after 72 hrs by MTT assay

MDA-MB-231 [1] = experiment: cells; conditions: Homo sapiens, MDA-MB-231, 72 h
Description: Cytotoxicity against human MDA-MB-231 cells after 72 hrs by MTT assay

MDA-MB-231 [2] = experiment: Antitumor activity against human MDA-MB-231 cells xenografted in BALB/c mouse assessed as tumor volume at 10 mg/kg, iv dosed every 3 days for 15 days relative to untreated control; format: functional
Mus musculus [3] = experiment: Hepatotoxicity in Kunming mouse assessed as serum ALT level at 10 mg/kg, iv (reference value: 60.7 +/- 6.9 U/L); format: toxicity, organism-based; set-up: dose 10 mg/kg, route intravenous; conditions: in vivo
[4] = target: Heat shock protein HSP 90-alpha (Homo sapiens, UniProt P07900); experiment: Displacement of GA-FITC from human recombinant HSP90alpha ATP-binding site by fluorescence polarization assay
Mus musculus [5] = experiment: Hepatotoxicity in Kunming mouse assessed as serum AST level at 10 mg/kg, iv (reference value: 197.2 +/- 11.2 U/L); format: toxicity, organism-based; set-up: dose 10 mg/kg, route intravenous; conditions: in vivo
MDA-MB-231 [6] = experiment: Antitumor activity against human MDA-MB-231 cells xenografted in BALB/c mouse assessed as reduction in tumor weight at 10 mg/kg, iv dosed every 3 days for 15 days; format: functional; conditions: read-out: GI

SMILES	IC50 (LNCaP) [nM]	IC50 (MDA-MB-231 [1]) [nM]	T/C (MDA-MB-231 [2]) [%]	Activity (Mus musculus [3]) [U/L]	IC50 [4] [nM]	Activity (Mus musculus [5]) [U/L]	inhibition in vivo at 10 mg/kg (MDA-MB-231 [6]) [%]
CO[C@H]1/C=C\C=C(/C)C(=O)NC2=CC(=O)C(NCc3ccccc3Cl)=C(C[C@@H](C)C[C@H](OC)[C@H](O)[C@@H](C)/C=C(\C)[C@@H]1OC(N)=O)C2=O	410	650					
CO[C@H]1/C=C\C=C(/C)C(=O)NC2=CC(=O)C(NCc3cccc(Cl)c3)=C(C[C@@H](C)C[C@H](OC)[C@H](O)[C@@H](C)/C=C(\C)[C@@H]1OC(N)=O)C2=O	8500	380					
CO[C@H]1/C=C\C=C(/C)C(=O)NC2=CC(=O)C(NCc3ccc(Cl)cc3)=C(C[C@@H](C)C[C@H](OC)[C@H](O)[C@@H](C)/C=C(\C)[C@@H]1OC(N)=O)C2=O	770	460					
CO[C@H]1/C=C\C=C(/C)C(=O)NC2=CC(=O)C(NCc3ccc(F)cc3)=C(C[C@@H](C)C[C@H](OC)[C@H](O)[C@@H](C)/C=C(\C)[C@@H]1OC(N)=O)C2=O	2280	630					
CO[C@H]1/C=C\C=C(/C)C(=O)NC2=CC(=O)C(NCc3ccc(Br)cc3)=C(C[C@@H](C)C[C@H](OC)[C@H](O)[C@@H](C)/C=C(\C)[C@@H]1OC(N)=O)C2=O	> 10000	240					
CO[C@H]1/C=C\C=C(/C)C(=O)NC2=CC(=O)C(NCc3ccc(I)cc3)=C(C[C@@H](C)C[C@H](OC)[C@H](O)[C@@H](C)/C=C(\C)[C@@H]1OC(N)=O)C2=O	1360	360					
CO[C@H]1/C=C\C=C(/C)C(=O)NC2=CC(=O)C(NCc3ccc(F)c(F)c3)=C(C[C@@H](C)C[C@H](OC)[C@H](O)[C@@H](C)/C=C(\C)[C@@H]1OC(N)=O)C2=O	> 10000	630					
CO[C@H]1/C=C\C=C(/C)C(=O)NC2=CC(=O)C(NCc3cc(F)cc(F)c3)=C(C[C@@H](C)C[C@H](OC)[C@H](O)[C@@H](C)/C=C(\C)[C@@H]1OC(N)=O)C2=O	1980	350					
COc1ccccc1CNC1=C2C[C@@H](C)C[C@H](OC)[C@H](O)[C@@H](C)/C=C(\C)[C@H](OC(N)=O)[C@@H](OC)/C=C\C=C(/C)C(=O)NC(=CC1=O)C2=O	> 10000	460					
COc1cccc(CNC2=C3C[C@@H](C)C[C@H](OC)[C@H](O)[C@@H](C)/C=C(\C)[C@H](OC(N)=O)[C@@H](OC)/C=C\C=C(/C)C(=O)NC(=CC2=O)C3=O)c1	2670	880					
COc1ccc(CNC2=C3C[C@@H](C)C[C@H](OC)[C@H](O)[C@@H](C)/C=C(\C)[C@H](OC(N)=O)[C@@H](OC)/C=C\C=C(/C)C(=O)NC(=CC2=O)C3=O)cc1	7810	180					
COc1ccc(CNC2=C3C[C@@H](C)C[C@H](OC)[C@H](O)[C@@H](C)/C=C(\C)[C@H](OC(N)=O)[C@@H](OC)/C=C\C=C(/C)C(=O)NC(=CC2=O)C3=O)c(OC)c1	3110	330					
COc1ccc(CNC2=C3C[C@@H](C)C[C@H](OC)[C@H](O)[C@@H](C)/C=C(\C)[C@H](OC(N)=O)[C@@H](OC)/C=C\C=C(/C)C(=O)NC(=CC2=O)C3=O)cc1OC	> 10000	360					
COc1cc(CNC2=C3C[C@@H](C)C[C@H](OC)[C@H](O)[C@@H](C)/C=C(\C)[C@H](OC(N)=O)[C@@H](OC)/C=C\C=C(/C)C(=O)NC(=CC2=O)C3=O)cc(OC)c1OC	2450	640					
COc1cc(CNC2=C3C[C@@H](C)C[C@H](OC)[C@H](O)[C@@H](C)/C=C(\C)[C@H](OC(N)=O)[C@@H](OC)/C=C\C=C(/C)C(=O)NC(=CC2=O)C3=O)ccc1O	140	160					
CO[C@H]1/C=C\C=C(/C)C(=O)NC2=CC(=O)C(NCc3ccc(O)cc3)=C(C[C@@H](C)C[C@H](OC)[C@H](O)[C@@H](C)/C=C(\C)[C@@H]1OC(N)=O)C2=O	8480	170					
CO[C@H]1/C=C\C=C(/C)C(=O)NC2=CC(=O)C(NCc3ccccc3C)=C(C[C@@H](C)C[C@H](OC)[C@H](O)[C@@H](C)/C=C(\C)[C@@H]1OC(N)=O)C2=O	5700	1670					
CO[C@H]1/C=C\C=C(/C)C(=O)NC2=CC(=O)C(NCc3cccc(C)c3)=C(C[C@@H](C)C[C@H](OC)[C@H](O)[C@@H](C)/C=C(\C)[C@@H]1OC(N)=O)C2=O	5230	800					

SMILES	IC50 (LNCaP) [nM]	IC50 (MDA-MB-231 [1]) [nM]	T/C (MDA-MB-231 [2]) [%]	Activity (Mus musculus [3]) [U/L]	IC50 [4] [nM]	Activity (Mus musculus [5]) [U/L]	inhibition in vivo at 10 mg/kg (MDA-MB-231 [6]) [%]
CO[C@H]1/C=C\C=C(/C)C(=O)NC2=CC(=O)C(NCc3ccc(C)cc3)=C(C[C@@H](C)C[C@H](OC)[C@H](O)[C@@H](C)/C=C(\C)[C@@H]1OC(N)=O)C2=O	> 10000	490					
CO[C@H]1/C=C\C=C(/C)C(=O)NC2=CC(=O)C(NCc3cccc(N)c3)=C(C[C@@H](C)C[C@H](OC)[C@H](O)[C@@H](C)/C=C(\C)[C@@H]1OC(N)=O)C2=O	180	560					
CO[C@H]1/C=C\C=C(/C)C(=O)NC2=CC(=O)C(NCc3ccc(N)cc3)=C(C[C@@H](C)C[C@H](OC)[C@H](O)[C@@H](C)/C=C(\C)[C@@H]1OC(N)=O)C2=O	50	170	55	74.9	890	215.8	46
CO[C@H]1/C=C\C=C(/C)C(=O)NC2=CC(=O)C(NCc3cccc(C#N)c3)=C(C[C@@H](C)C[C@H](OC)[C@H](O)[C@@H](C)/C=C(\C)[C@@H]1OC(N)=O)C2=O	1800	450					
CO[C@H]1/C=C\C=C(/C)C(=O)NC2=CC(=O)C(NCc3ccc(C#N)cc3)=C(C[C@@H](C)C[C@H](OC)[C@H](O)[C@@H](C)/C=C(\C)[C@@H]1OC(N)=O)C2=O	480	250					
CO[C@H]1/C=C\C=C(/C)C(=O)NC2=CC(=O)C(NCc3ccc(S(C)(=O)=O)cc3)=C(C[C@@H](C)C[C@H](OC)[C@H](O)[C@@H](C)/C=C(\C)[C@@H]1OC(N)=O)C2=O	850	350					
CO[C@H]1/C=C\C=C(/C)C(=O)NC2=CC(=O)C(NCc3ccc(S(N)(=O)=O)cc3)=C(C[C@@H](C)C[C@H](OC)[C@H](O)[C@@H](C)/C=C(\C)[C@@H]1OC(N)=O)C2=O	960	1060					
COC(=O)c1ccc(CNC2=C3C[C@@H](C)C[C@H](OC)[C@H](O)[C@@H](C)/C=C(\C)[C@H](OC(N)=O)[C@@H](OC)/C=C\C=C(/C)C(=O)NC(=CC2=O)C3=O)cc1	1030	130					
CCOC(=O)c1ccc(CNC2=C3C[C@@H](C)C[C@H](OC)[C@H](O)[C@@H](C)/C=C(\C)[C@H](OC(N)=O)[C@@H](OC)/C=C\C=C(/C)C(=O)NC(=CC2=O)C3=O)cc1	1340	130					
CO[C@H]1/C=C\C=C(/C)C(=O)NC2=CC(=O)C(NCc3ccc(OC(F)(F)F)cc3)=C(C[C@@H](C)C[C@H](OC)[C@H](O)[C@@H](C)/C=C(\C)[C@@H]1OC(N)=O)C2=O	570	180					
CO[C@H]1/C=C\C=C(/C)C(=O)NC2=CC(=O)C(NCc3cccc([N+](=O)[O-])c3)=C(C[C@@H](C)C[C@H](OC)[C@H](O)[C@@H](C)/C=C(\C)[C@@H]1OC(N)=O)C2=O	340	690					
CO[C@H]1/C=C\C=C(/C)C(=O)NC2=CC(=O)C(NCc3ccsc3)=C(C[C@@H](C)C[C@H](OC)[C@H](O)[C@@H](C)/C=C(\C)[C@@H]1OC(N)=O)C2=O	680	400					
CO[C@H]1/C=C\C=C(/C)C(=O)NC2=CC(=O)C(NCc3cncn3C)=C(C[C@@H](C)C[C@H](OC)[C@H](O)[C@@H](C)/C=C(\C)[C@@H]1OC(N)=O)C2=O	440	410					
CO[C@H]1/C=C\C=C(/C)C(=O)NC2=CC(=O)C(NCc3ccc(Cl)nc3)=C(C[C@@H](C)C[C@H](OC)[C@H](O)[C@@H](C)/C=C(\C)[C@@H]1OC(N)=O)C2=O	510	80	40	79.4	1040	173.6	50
CO[C@H]1/C=C\C=C(/C)C(=O)NC2=CC(=O)C(NCc3ccc(C(F)(F)F)nc3)=C(C[C@@H](C)C[C@H](OC)[C@H](O)[C@@H](C)/C=C(\C)[C@@H]1OC(N)=O)C2=O	350	100	31	61	430	164.1	63
COC1=C2C[C@@H](C)C[C@H](OC)[C@H](O)[C@@H](C)/C=C(\C)[C@H](OC(N)=O)[C@@H](OC)/C=C\C=C(/C)C(=O)NC(=CC1=O)C2=O [GELDANAMYCIN]				273		317.2	
C=CCNC1=C2C[C@@H](C)C[C@H](OC)[C@H](O)[C@@H](C)/C=C(\C)[C@H](OC(N)=O)[C@@H](OC)/C=C\C=C(/C)C(=O)NC(=CC1=O)C2=O [TANESPIMYCIN]	160		35	66.6		237.4	57
